Test in all cases: scanMAX kinase panel
Type in all cases: binding

One test concerns the target T1, RIOK2 (Homo sapiens, UniProt Q9BVS4).
T1 construct: purchased DiscoverX (scanMAX panel)
The following applies: read-out: % Control; for remaining binding at 1 µM: 1000 nM. The source says:
(§1) Supplemental Table S2. scanMAXSM Kinome Assay Results. Complete tabulated data of all 468 kinases from the panel, including
(§2) 403 wild-type and 65 mutant isoforms. […] Cmpd 11 and Cmpd 24

Another test concerns the target T2, MAP3K3 (Homo sapiens, UniProt Q99759).
T2 construct: purchased DiscoverX scanMAX
T2 sequence (Q99759 1-626): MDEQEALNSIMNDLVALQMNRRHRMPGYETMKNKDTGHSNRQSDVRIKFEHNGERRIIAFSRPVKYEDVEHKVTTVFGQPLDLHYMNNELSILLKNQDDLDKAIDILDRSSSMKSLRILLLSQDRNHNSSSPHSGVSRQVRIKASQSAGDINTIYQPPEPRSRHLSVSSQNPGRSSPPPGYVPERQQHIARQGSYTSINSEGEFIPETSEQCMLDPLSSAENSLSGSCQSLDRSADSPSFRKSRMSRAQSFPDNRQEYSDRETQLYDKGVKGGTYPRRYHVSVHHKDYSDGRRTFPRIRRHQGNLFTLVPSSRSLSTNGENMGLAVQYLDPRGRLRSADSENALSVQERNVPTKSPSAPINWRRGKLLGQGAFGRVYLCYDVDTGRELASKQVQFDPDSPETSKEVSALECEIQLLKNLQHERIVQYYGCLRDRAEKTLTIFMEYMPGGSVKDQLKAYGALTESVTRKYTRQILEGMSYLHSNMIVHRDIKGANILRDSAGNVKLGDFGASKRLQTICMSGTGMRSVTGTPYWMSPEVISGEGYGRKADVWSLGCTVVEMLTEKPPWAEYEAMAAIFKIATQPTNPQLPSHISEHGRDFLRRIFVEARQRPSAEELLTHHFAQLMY
The conditions noted are these: read-out: % Control; for remaining binding at 1 µM: 1000 nM.
Excerpt: as §1, §2

The test system of another test is FLT3(ITD,D835V).
Excerpt: as §1, §2

Another test has as its target T3, FLT3(N841I) (Homo sapiens, UniProt P36888, N841I).
T3 construct: purchased DiscoverX scanMAX
T3 sequence (P36888 27-993 N841I): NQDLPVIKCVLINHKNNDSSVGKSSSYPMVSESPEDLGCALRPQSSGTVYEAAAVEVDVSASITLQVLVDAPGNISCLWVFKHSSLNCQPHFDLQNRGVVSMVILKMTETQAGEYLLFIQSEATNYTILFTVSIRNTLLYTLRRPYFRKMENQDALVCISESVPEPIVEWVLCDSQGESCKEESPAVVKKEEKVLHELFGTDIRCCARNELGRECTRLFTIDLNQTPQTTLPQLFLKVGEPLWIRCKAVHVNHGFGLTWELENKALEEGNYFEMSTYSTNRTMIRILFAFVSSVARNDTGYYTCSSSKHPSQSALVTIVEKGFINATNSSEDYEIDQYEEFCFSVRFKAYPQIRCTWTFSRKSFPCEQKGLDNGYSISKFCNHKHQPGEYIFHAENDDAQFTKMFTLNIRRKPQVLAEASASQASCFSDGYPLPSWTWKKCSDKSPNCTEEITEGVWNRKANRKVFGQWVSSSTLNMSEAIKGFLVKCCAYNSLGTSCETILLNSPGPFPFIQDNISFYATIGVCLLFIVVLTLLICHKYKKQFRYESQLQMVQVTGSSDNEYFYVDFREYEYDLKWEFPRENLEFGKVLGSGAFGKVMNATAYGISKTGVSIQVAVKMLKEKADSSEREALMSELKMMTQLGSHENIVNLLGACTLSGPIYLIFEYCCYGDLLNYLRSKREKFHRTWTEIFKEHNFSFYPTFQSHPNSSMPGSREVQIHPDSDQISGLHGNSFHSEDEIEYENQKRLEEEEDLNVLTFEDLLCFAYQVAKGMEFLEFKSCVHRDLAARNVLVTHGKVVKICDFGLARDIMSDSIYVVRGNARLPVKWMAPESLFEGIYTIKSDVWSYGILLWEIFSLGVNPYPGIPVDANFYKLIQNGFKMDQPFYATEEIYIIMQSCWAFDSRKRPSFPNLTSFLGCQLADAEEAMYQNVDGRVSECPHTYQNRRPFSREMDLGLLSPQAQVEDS
The conditions noted are these: read-out: % Control; for remaining binding at 1 µM: 1000 nM.
Excerpt: as §1, §2

The next test has as its target T4, CSF1R (Homo sapiens, UniProt P07333).
T4 construct: purchased DiscoverX scanMAX
The conditions noted are these: read-out: % Control; for remaining binding at 1 µM: 1000 nM.
Excerpt: as §1, §2

Another test concerns the target T5, YANK2 (Homo sapiens, UniProt Q9NY57).
T5 construct: purchased DiscoverX (scanMAX panel)
The following applies: read-out: % Control; for remaining binding at 1 µM: 1000 nM.
Excerpt: as §1, §2

The target of another test is T6, YANK1 (Homo sapiens, UniProt Q8WU08).
T6 construct: purchased DiscoverX (scanMAX panel)
T6 sequence (Q8WU08 whole entry): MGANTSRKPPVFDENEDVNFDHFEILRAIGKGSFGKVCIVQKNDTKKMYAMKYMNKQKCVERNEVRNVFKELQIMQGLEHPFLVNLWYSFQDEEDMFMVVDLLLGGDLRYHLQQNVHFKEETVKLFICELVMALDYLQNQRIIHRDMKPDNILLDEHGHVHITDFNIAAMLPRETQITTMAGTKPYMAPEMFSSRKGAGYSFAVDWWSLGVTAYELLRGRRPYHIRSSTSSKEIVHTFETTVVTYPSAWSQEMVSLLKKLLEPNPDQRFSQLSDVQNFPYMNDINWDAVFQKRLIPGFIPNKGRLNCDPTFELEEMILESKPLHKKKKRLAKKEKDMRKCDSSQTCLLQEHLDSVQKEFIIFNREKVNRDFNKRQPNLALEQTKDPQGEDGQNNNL
The conditions noted are these: read-out: % Control; for remaining binding at 1 µM: 1000 nM.
Excerpt: as §1, §2

The next test relates to FLT3(ITD).
Excerpt: as §1, §2

The next test addresses T7, NEK5 (Homo sapiens, UniProt Q6P3R8).
T7 construct: purchased DiscoverX scanMAX
T7 sequence (Q6P3R8 1-708): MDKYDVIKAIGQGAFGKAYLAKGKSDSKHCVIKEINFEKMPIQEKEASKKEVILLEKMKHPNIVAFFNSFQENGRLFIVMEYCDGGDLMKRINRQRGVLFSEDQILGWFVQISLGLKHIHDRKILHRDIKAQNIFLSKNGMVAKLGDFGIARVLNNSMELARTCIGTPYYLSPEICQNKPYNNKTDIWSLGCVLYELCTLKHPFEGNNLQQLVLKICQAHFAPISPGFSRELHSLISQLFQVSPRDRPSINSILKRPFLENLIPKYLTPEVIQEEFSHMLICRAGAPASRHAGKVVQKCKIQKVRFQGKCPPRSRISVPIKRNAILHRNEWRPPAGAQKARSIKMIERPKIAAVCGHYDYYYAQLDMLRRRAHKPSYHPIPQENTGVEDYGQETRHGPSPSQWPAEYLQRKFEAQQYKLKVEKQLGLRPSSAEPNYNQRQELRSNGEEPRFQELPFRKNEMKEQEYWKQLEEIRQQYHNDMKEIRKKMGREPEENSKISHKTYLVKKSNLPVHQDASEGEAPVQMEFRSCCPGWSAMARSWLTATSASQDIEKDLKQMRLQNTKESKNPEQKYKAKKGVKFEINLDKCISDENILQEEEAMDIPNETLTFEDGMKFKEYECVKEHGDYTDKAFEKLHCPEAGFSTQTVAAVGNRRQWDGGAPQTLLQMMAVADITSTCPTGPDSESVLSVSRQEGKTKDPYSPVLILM
The conditions noted are these: read-out: % Control; for remaining binding at 1 µM: 1000 nM.
Excerpt: as §1, §2

T5 sequence (Q9NY57 whole entry): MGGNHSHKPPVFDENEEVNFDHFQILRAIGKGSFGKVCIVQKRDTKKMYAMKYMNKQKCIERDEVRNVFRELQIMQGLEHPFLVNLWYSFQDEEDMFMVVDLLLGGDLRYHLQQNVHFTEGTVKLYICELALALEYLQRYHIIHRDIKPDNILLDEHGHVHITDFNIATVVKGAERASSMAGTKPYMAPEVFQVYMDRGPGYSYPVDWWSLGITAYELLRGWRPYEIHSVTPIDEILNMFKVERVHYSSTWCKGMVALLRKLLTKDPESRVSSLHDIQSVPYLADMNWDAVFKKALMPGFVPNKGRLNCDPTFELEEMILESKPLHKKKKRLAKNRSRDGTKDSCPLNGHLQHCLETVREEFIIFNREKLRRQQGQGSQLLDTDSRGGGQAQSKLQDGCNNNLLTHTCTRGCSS
T1 sequence (Q9BVS4 whole entry): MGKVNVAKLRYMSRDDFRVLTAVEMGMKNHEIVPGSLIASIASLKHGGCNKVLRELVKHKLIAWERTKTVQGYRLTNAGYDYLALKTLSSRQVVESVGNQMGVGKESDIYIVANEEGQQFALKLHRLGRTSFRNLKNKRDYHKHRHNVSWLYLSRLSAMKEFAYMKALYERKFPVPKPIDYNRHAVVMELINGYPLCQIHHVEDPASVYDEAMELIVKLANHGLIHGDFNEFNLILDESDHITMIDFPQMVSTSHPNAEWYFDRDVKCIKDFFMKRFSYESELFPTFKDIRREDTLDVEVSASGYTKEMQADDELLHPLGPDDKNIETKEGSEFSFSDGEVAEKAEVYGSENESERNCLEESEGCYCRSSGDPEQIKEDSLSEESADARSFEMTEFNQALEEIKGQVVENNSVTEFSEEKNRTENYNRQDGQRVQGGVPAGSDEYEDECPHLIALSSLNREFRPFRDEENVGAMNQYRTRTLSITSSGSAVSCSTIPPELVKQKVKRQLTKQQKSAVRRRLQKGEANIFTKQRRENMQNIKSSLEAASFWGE
T4 sequence (P07333 20-972): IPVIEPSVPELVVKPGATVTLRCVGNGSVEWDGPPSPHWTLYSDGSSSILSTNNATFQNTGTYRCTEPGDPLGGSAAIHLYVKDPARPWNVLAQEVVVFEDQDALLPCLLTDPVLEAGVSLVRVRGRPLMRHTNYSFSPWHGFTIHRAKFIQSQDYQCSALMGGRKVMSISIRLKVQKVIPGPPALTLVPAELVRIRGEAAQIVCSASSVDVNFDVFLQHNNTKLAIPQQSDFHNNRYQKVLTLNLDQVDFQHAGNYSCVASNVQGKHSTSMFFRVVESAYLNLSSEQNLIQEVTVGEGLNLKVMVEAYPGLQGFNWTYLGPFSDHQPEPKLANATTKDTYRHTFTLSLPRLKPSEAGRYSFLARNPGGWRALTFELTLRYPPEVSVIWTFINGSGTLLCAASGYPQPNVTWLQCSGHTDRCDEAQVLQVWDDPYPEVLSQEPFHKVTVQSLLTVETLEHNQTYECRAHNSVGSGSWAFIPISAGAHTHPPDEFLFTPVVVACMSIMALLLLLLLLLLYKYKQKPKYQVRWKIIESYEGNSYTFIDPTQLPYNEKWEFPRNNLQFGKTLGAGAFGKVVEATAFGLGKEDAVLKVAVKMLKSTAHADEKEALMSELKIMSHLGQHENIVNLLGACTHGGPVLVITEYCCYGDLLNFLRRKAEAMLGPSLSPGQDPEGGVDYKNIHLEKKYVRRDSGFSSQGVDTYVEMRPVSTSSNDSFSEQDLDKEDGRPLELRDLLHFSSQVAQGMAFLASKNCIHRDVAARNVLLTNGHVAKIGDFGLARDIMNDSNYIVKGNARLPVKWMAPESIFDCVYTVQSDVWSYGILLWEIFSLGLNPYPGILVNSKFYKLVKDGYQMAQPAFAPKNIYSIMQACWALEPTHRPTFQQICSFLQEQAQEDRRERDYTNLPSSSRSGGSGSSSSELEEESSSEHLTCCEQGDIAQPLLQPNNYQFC

`Cc1cc(NC(=O)[C@H](O)c2cccc(F)c2)ccc1-c1cn(C)c2ncnc(N)c12` [Compound 11, (R)-N-(4-(4-amino-7-methyl-7H-pyrrolo[2,3-d]pyrimidin-5-yl)-3-methylphenyl)-2-(3-fluorophenyl)-2-hydroxy acetamide]: the remaining binding at 1 µM at RIOK2 was 20%; at MAP3K3 it was 32%; on FLT3(N841I) it was 0.3%; at CSF1R, 45%; on YANK2, 11%; on YANK1 it was 28%. For the same compound, the remaining binding at 1 µM at NEK5 is 34%. Besides, the entries for the “% Control” value with FLT3(ITD,D835V) (1000 nM) and with FLT3(ITD) (1000 nM) were 89% and 34%, respectively.

For the compound `Cc1nc(N)c2c(-c3ccc(NC(=O)[C@H](O)c4cccc(F)c4)cc3C)cn(C)c2n1` [Compound 24], the remaining binding at 1 µM at RIOK2 is 89%; at MAP3K3 it was 100%; at FLT3(N841I) it was 100%; on CSF1R, 94%; on YANK2 it was 100%; on YANK1, 94%. Moreover, the remaining binding at 1 µM on NEK5 worked out at 100%. For the same compound, the “% Control” value came to 100% in the test on FLT3(ITD,D835V) (1000 nM) and 94% in the test on FLT3(ITD) (1000 nM).

Consider `Cc1nc(N)c2c(-c3ccc(NC(=O)[C@H](O)c4cccc(C(F)(F)F)c4)cc3C)cn(C)c2n1` [Compound 26], for which the remaining binding at 0.1 µM was 91% at RIOK2 (100 nM); 100% at MAP3K3 (100 nM); 34% at FLT3(N841I) (100 nM); 99% on CSF1R (100 nM); 92% at YANK2 (100 nM); 96% on YANK1 (100 nM). Further, the remaining binding at 0.1 µM on NEK5 (100 nM) came to 100%. Moreover, the remaining binding at 1 µM on RIOK2 was 92%; at MAP3K3, 92%; at FLT3(N841I), 0%; on CSF1R, 15%; on YANK2, 63%; on YANK1, 67%. Moreover, the remaining binding at 1 µM on NEK5 is 96%. Also, the “% Control” value with FLT3(ITD,D835V) (100 nM) came to 100%; in the test with FLT3(ITD,D835V) (1000 nM), 75%; with FLT3(ITD) (100 nM), 95%; in the test with FLT3(ITD) (1000 nM) it was 9.4%.

Source of the values: publication PMC9611727, “Optimization of a Novel Mandelamide-Derived Pyrrolopyrimidine Series of PERK Inhibitors” (Pharmaceutics, 2022).
